The test has as its system S. pneumoniae R6 biofilms. Briefly: Killing of preformed biofilms. The settings on record: S. pneumoniae R6 biofilm, 1 h, 37°C, plating on blood agar. It is filed as cell-based, Streptococcus pneumoniae. On the procedure: Biofilms were prepared as described ([Domenech and García, 2020]). Briefly, S. pneumoniae R6 cells in late exponential growth (OD550 ≈ 0.6; C + Y medium) were pelleted by centrifugation, resuspended in an equal volume of fresh medium, diluted 1/100 (4.5 × 10^6 CFU/mL), and then dispensed (200 µL per well) in 96-well flat-bottom polystyrene plates (Costar 3,595; Corning; Spain). After plate incubation at 34°C for 4.5 h without shaking, bacterial growth (non-adherent cells plus biofilm-forming cells) was determined by measuring the OD550 using a VersaMax microplate absorbance reader. The supernatant (non-adherent cells) was replaced by 200 μL of DICAM 4 (150, 300 or 600 µM) prepared by dilution in sterile water and plate incubation was continued for 1 h at 37°C. Plates were then washed and the biofilms disaggregated in sterile water for viable cell determination in Mueller-Hinton blood agar plates after overnight incubation at 37°C. For the observation of biofilms by CLSM, bacteria were grown on glass-bottomed dishes (WillCo-dish; WillCo Wells, Netherlands) and treated as above, plating 2 mL of the final inoculum per disc and then adding 0.5 mL of DICAM solution. […] Laser intensity and gain were kept the same for all images and they were analyzed using LCS software from Leica. […]

One compound from PMC11329928, “Design, synthesis and structure-activity relationship (SAR) studies of an unusual class of non-cationic fatty amine-tripeptide conjugates as novel synthetic antimicrobial agents” (Frontiers in Pharmacology, 2024) can be followed below.

Structures are written as SMILES. Where a name gives a salt, the structure may show the parent alone.

Regarding `CCCCCCCCCCCCCCCCCCNC(=O)[C@H](CCC(=O)O)NC(=O)[C@H]1CCCN1C(=O)[C@H](C)N` [DICAM 4, Ala- Pro -Glu-NH-C18H37 ·HCl], the “Cells killed in preformed biofilms at 300 μM” value is recorded as about 90%.
